From a melting point compilation (Tetko et al.; mined from patent text by program, amines drawn as free bases though some values may be those of a salt)

First: Cc1cccc(C(=O)Nc2c[nH]nc2C(=O)NCCO)n1
Second: CC(C)(CNC(=O)Cc1ccccc1)NCC(O)c1cc(Cl)c(NC(=O)C(C)(C)C)c(Cl)c1 (stereo not given)
The melting point of the first is higher: 252 to 253 °C for the first, 83 to 85 °C for the second.

Compared with `COc1ccc(Nc2cc(C)nc(N)n2)cc1Cl`, `CC#Cc1cc(C)nc(Nc2ccc(F)cc2)n1` is lower in melting point: 250 °C for the first, 138 to 140 °C for the second.

First: COC(=O)CSc1ncnc(N2CCc3ccccc3CC2)c1[N+](=O)[O-]
Second: Nc1ncnc2c1c(-c1ccc(Oc3ccccc3)cc1)cn2CC(=O)NCCN1CCNCC1
The melting point of the first is lower: 113 to 115 °C for the first, 138 to 140 °C for the second.

Compared with `COc1cc(OC)cc(-c2nc(CCl)co2)c1`, `COc1ccc(N(Cc2cccnc2)S(C)(=O)=O)c(OC)c1` is higher in melting point: 85 to 86 °C for the first, 117 to 119 °C for the second.

First: CCC(C)C(NC(=O)OC)C(=O)NN(Cc1ccc(-c2cncs2)cc1)CC(O)C(Cc1ccccc1)NC(=O)C(NC(=O)OC)C(C)(C)C (stereo not given)
Second: CCCCc1nc(C(C)(C)O)c(C(=O)OCOC(=O)OC(C)C)n1Cc1ccc(-c2ccccc2C(=O)O)cc1
The melting point of the first is lower: 139 to 141 °C for the first, 154 to 156 °C for the second.

First: CCC(O)(c1cccc(C(F)(F)F)c1)c1ccc(O)cc1O (stereo not given)
Second: COc1cc(Oc2cccc(C(F)(F)F)c2)nc(C(=O)NCc2ccccc2)c1
The melting point of the first is higher: 137 to 138 °C for the first, 87 to 92 °C for the second.

First: Cc1noc(NS(=O)(=O)c2ccccc2-c2ccc(-c3ncco3)cc2CN(Cc2ccccc2)CC(F)(F)F)c1C
Second: CS(=O)(=O)C(=C1CN(C(c2ccccc2)c2ccccc2)C1)c1cccc(OC(F)(F)F)c1
The melting point of the first is lower: 50 to 60 °C for the first, 162 °C for the second.

First: N#CCSC(=S)SCc1ccc(Cl)cc1
Second: O=C(O)CSc1nc(-c2ccc(Cl)cc2)no1
The melting point of the first is lower: 41 to 43 °C for the first, 112 to 114 °C for the second.

Compared with `N#Cc1ccc2c(c1)C(=O)N(C1CCC(=O)NC1=O)C2=O` (stereo not given), `N#Cc1ccc(-c2cc(-c3ccc(C#N)cc3Cl)no2)cc1` is lower in melting point: > 260 °C for the first, 247 to 248 °C for the second.

First: c1ccc(Sc2c(CCc3nc4ccccc4o3)[nH]c3ccccc23)cc1
Second: O=c1cc(-c2cccs2)oc2cccc(OCCOc3ccccc3)c12
The melting point of the first is higher: 192 to 193 °C for the first, 173 to 174 °C for the second.

`O=C1C=CC(Cl)(C(=O)OC(c2ccccc2)c2ccccc2)O1` (stereo not given) and `c1ccc(C(N=C2CCCC2)c2ccccc2)cc1` cannot be ordered by melting point: 99 to 101 °C for the first, 96 to 100 °C for the second.

First: CCCNC(=O)CCCc1ccc2c(c1)c(Cc1ccc(C(=O)O)cc1OC)cn2CCC
Second: COc1ccc(C(=O)Nc2ccccc2)cc1NCc1ccc(F)cc1
The melting point of the first is lower: 143 to 144 °C for the first, 165 to 167 °C for the second.

Compared with `CCOC(=O)c1cnc2ccc3nc(S(C)(=O)=O)sc3c2c1Cl`, `CCOC(=O)c1cnc(Nc2cc(OC)ccc2OC)[nH]c1=O` is higher in melting point: 170 to 179 °C for the first, 221 to 223 °C for the second.

Compared with `Cc1cc(-c2ccc(C#N)cc2)c(C#N)n1Cc1cnc(Cl)c(CO)c1`, `CCCCc1nn2cc(C)nc2n1Cc1ccc(-c2ccccc2-c2nnn[nH]2)cc1` is lower in melting point: 184 °C for the first, 124 to 125 °C for the second.

First: Cc1ccc(S(=O)(=O)Nc2cc(C(=O)O)c3c(c2)C(C(=O)O)CCN3)cc1 (stereo not given)
Second: Cc1ccc(S(=O)(=O)NCCOCCO)cc1
The melting point of the first is higher: 221 to 223 °C for the first, 35 to 38 °C for the second.

First: CC=CCn1c(C)c(C)c2cnnc(OCc3ccc(F)cc3)c21
Second: Fc1ccc(CC[C@H]2CNCCN2)cc1
The melting point of the first is lower: 93 to 103 °C for the first, 112 to 114 °C for the second.

Compared with `COC1=NS(=O)N=C1NCCCCC#CCN(C)C` (stereo not given), `COCCCNc1ccc([N+](=O)[O-])cc1` is lower in melting point: 154 to 155 °C for the first, 57 to 59 °C for the second.

First: CCC(CC)Nc1cc(C(=O)O)ccc1N1C(=O)CCC1(CO)CCO (stereo not given)
Second: CCNC=C(C(=O)C=Cc1ccc2c(c1)OCO2)C(=O)OC
The melting point of the first is higher: 188 to 190 °C for the first, 124 to 125 °C for the second.

Compared with `CC(C)(C)OC(=O)C1CCCN1C(=O)c1ccc2c(Cl)cnc(Cl)c2c1` (racemic), `COc1cc(Nc2c(C#N)cnc3cc(/C=C/CCN4CCN(C)CC4)ccc23)c(Cl)cc1Cl` is higher in melting point: 144 to 146 °C for the first, 152 to 154 °C for the second.

First: N#Cc1ccc(-c2sc(N)c(C(=O)c3ccc(Cl)cc3)c2CN(C2CCCCC2)C2CCCCC2)cc1
Second: OC1CCCN(CC(O)COc2ccc(-c3ccc(F)cc3)cc2)C1 (stereo not given)
The melting point of the first is higher: 196 to 200 °C for the first, 100 to 102 °C for the second.

Compared with `COc1ccc(S(=O)(=O)CC(C)(C)CS(=O)(=O)c2ccc(OC)cc2)cc1`, `COc1ccc(-c2ccc3c(c2)c2ccc(Cl)nc2n3S(=O)(=O)c2ccccc2)cc1` is higher in melting point: 115 to 117 °C for the first, 176 to 178 °C for the second.

First: COc1cccc2c1C(=O)c1c(OC)cc(C(=O)N(C)O)cc1C2=O
Second: COc1cc(Nc2c(C#N)cnc3cc(-c4ccc(CN(C)C)cc4)sc23)cc(OC)c1OC
The melting point of the first is lower: 182 °C for the first, 199 to 201 °C for the second.

First: O=C(O)CCc1oc(-n2cncn2)nc1-c1ccc(Cl)cc1
Second: CC(C)(O)c1ccc(C(=O)Nc2cn3cc(-n4ccnc4)ccc3n2)cc1
The melting point of the first is lower: 168 to 169 °C for the first, 281 to 282 °C for the second.

First: Cc1cc2c(N=C3SC[C@@H]4Cc5ccccc5CN34)cccc2cn1
Second: BrCc1cccc(-c2ccccc2)c1
The melting point of the first is higher: 181 °C for the first, 54 to 56 °C for the second.

Compared with `CN1CC2CN(C(=O)N3c4ccccc4C(=O)Nc4cccnc43)CC2C1` (stereo not given), `O=C1c2ccccc2C(O)N1CCCN1CCN(c2ccc(O)cc2)CC1` (stereo not given) is higher in melting point: 157 to 159 °C for the first, 190 °C for the second.

First: Oc1ccc(OCCCCI)cc1
Second: CCCCOc1cc(=O)n(C)c2ccccc12
The melting point of the first is lower: 51 to 53 °C for the first, 77 to 80 °C for the second.

Compared with `CCCCOc1nc2ncnn2c2c1cnc1c2cnn1CC`, `CCOCc1nc2c(N)nc3ccccc3c2n1CCOCCCS(=O)(=O)N(C)C` is lower in melting point: 140 to 142 °C for the first, 61 to 64 °C for the second.

First: OCCCc1nc2ccccn2n1
Second: C#CCNc1onc(-c2ccccc2)c1Cl
The melting point of the first is lower: 71.5 to 73 °C for the first, 83 to 84 °C for the second.

First: O=C(c1ccc(CCl)cc1)N1CCCCC1
Second: O=C(/C=C/c1cccc(Cl)c1)N1CCCC1
The melting point of the first is lower: 106 to 108 °C for the first, 137 to 138 °C for the second.

First: CN1C(=O)C2(COc3cc4c(cc32)OCO4)c2c(Br)cccc21 (stereo not given)
Second: CC(C)(C)c1cc2c(c(C(C)(C)C)c1)OC(=O)C2c1ccc2c(c1)-c1ccccc1C2 (stereo not given)
The melting point of the first is higher: 155 to 157 °C for the first, 140 to 153 °C for the second.

Compared with `COc1cccc(S(=O)(=O)c2ccc3c(c2)[C@@H](Nc2ccnc(Cl)n2)[C@](C)(O)C(C)(C)O3)c1`, `CO[C@]1(c2csc(S(=O)(=O)c3ccc4c(c3)CC/C4=N\O)c2)CCO[C@@H]1C` (racemic) is lower in melting point: 228 to 230 °C for the first, 170 to 172 °C for the second.

First: CNC(=O)Nc1ccc(F)cc1F
Second: O=C(NC(=O)c1c(F)cccc1F)Nc1ccc(S(=O)(=O)C(F)(F)C(F)F)cc1F
The melting point of the first is lower: 182 to 183 °C for the first, 186 to 187 °C for the second.

Compared with `CCCCCCC(=O)c1c(O)oc(=O)c(C(=O)CCCCCC)c1O`, `CCCCCCCCCCCCCCCCOc1nc2ccc(C)cc2c(=O)o1` is lower in melting point: 88 to 90 °C for the first, 67 °C for the second.

First: CC(C)(C)c1cc(C=Cc2ccccc2NC(=O)NC23CC4CC(CC(C4)C2)C3)cc(C(C)(C)C)c1O
Second: C[C@H](NC(=O)COCCNC(=O)C12CC3CC(CC(C3)C1)C2)C(=O)N[C@H](CCC(=O)OCc1ccccc1)C(N)=O
The melting point of the first is higher: 205 to 211 °C for the first, 57 to 64 °C for the second.

First: CC(c1ccc(F)cc1)N(O)C(N)=O (stereo not given)
Second: COc1cccc(CN[C@H](C)c2ccc([N+](=O)[O-])cc2)c1O
The melting point of the first is higher: 127 to 129 °C for the first, 112 to 114 °C for the second.

Compared with `COc1ccc2[nH]c3c(c2c1)C[C@@]1(C)C(=O)N(CCN2CCOCC2)C(=O)N1[C@@H]3c1cccc(O)c1` (racemic), `COc1ccc2c(c1)C(=O)c1c-2c(N2CCNCC2)nc2ccc(F)cc12` is lower in melting point: 260 to 263 °C for the first, 157 to 158 °C for the second.

First: N#Cc1cnc2sc(-c3ccccc3C=O)cc2c1Nc1ccc2[nH]ccc2c1
Second: Cc1ccc(NC(=O)c2ccc(CN3CCC[C@H](N(C)C)C3)c(C(F)(F)F)c2)cc1Nc1nccc(-c2cncnc2)n1
The melting point of the first is higher: 222 to 224 °C for the first, 160 to 162 °C for the second.

First: COc1cc(OC)nc(NC(=O)N=NS(=O)(=O)C2SCCCN2C)n1 (stereo not given)
Second: COc1cc(OC)cc(N2CCN(C(=O)N(c3nc4ccccc4nc3OC)C(C)C)CC2)c1
The melting point of the first is higher: 188 to 190 °C for the first, 110 to 112 °C for the second.

First: CCOC(Cc1ccc2oc(Cc3nc(-c4ccccc4)oc3C)cc2c1)C(N)=O (stereo not given)
Second: COc1nnc2n1C=Cc1ccccc1C2c1ccccc1 (stereo not given)
The melting point of the first is lower: 165 to 168 °C for the first, 183 to 184 °C for the second.

First: O=C1CC(CO)(C(=O)N(Cc2ccccc2)Cc2ccccc2)CN1Cc1ccccc1 (stereo not given)
Second: CC(C)C(=O)c1cn(Cc2c(F)cccc2F)c2sc(-c3ccc(NC(=O)C(C)CO)cc3)c(CN(C)Cc3ccccc3)c2c1=O (stereo not given)
The melting point of the first is lower: 127 to 129 °C for the first, 161 to 162 °C for the second.

First: Cc1noc(C2CN3CCC2CC3)n1 (stereo not given)
Second: CC1CC(C)CN(C(=O)c2ccccc2)C1 (stereo not given)
The melting point of the first is higher: 112 to 115 °C for the first, 107 to 109 °C for the second.

`CCOC(CC)c1ccc(Cl)c2nc3n(c12)CCCN3c1ccc(Cl)cc1Cl` (stereo not given) and `CCN(CC)c1ccc(-n2c(C(F)(F)F)nn(C)c2=S)c(Cl)c1` fall in the same range of melting point: 108 to 110 °C for the first, 108 to 110 °C for the second.

First: O=S(=O)(Cl)C=Cc1ccc(C2CCCCC2)c(Br)c1
Second: CC(C)Nc1cccnc1N1CCN(C(=O)c2cc3cc(NS(=O)(=O)N4CCOCC4)ccc3[nH]2)CC1
The melting point of the first is lower: 93 to 97 °C for the first, 210 to 212 °C for the second.

First: Fc1cccc(Cl)c1CNc1ncnc2nsnc12
Second: C=Cn1cc(C(=O)OCC)c(=O)c2cc(F)c(Cl)cc21
The melting point of the first is higher: 224 to 226 °C for the first, 146 to 149 °C for the second.

Compared with `C[C@H](NC(=O)c1c[nH]c2ncc(C3CC3)nc12)C(C)(C)O`, `Cc1c(NCC2CCCCO2)cc2oc(=O)[nH]c2c1F` (stereo not given) is lower in melting point: 272 to 274 °C for the first, 166 °C for the second.

First: COc1cccc2c1OC(C(=O)O)CO2 (stereo not given)
Second: CC1NCC(CO)CC1OC(=O)c1ccncc1 (stereo not given)
The melting point of the first is higher: 131 to 132 °C for the first, 126 to 128 °C for the second.

Compared with `Cc1c(Br)ccc(N)c1C#N`, `NC(=O)c1nsc(N)c1C(N)=O` is higher in melting point: 111 to 113 °C for the first, 205 °C for the second.

Compared with `CC(C(O)c1ccc(OC(=O)c2ccc(CN3CCOCC3)cc2)cc1)N1CCC(O)(c2ccccc2)CC1` (stereo not given), `CCOC(=O)c1cccc(NC(=O)c2ccc(OC)c(Nc3cccc(C(F)(F)F)c3)c2)c1` is lower in melting point: 172 to 173 °C for the first, 169 to 170 °C for the second.

Compared with `CCCCCCCCCCCCOc1ccc(-c2ncc(-c3ccc(O)c(F)c3F)cn2)cn1`, `O=c1[nH]c2ccc(C3=NOC(CN4CCC(S(=O)c5ccc(F)cc5)CC4)C3)cc2o1` (stereo not given) is higher in melting point: 111 to 118 °C for the first, 170 to 178 °C for the second.

First: C=C(C)C(=O)OCCC#Cc1ccc2c(ccc3cc(OC(=O)C(=C)C)ccc32)c1
Second: CC1(C)NC(=O)CN1C(=O)CBr
The melting point of the first is lower: 91 °C for the first, 137 to 138 °C for the second.
